{"source": "patent US7794934B2", "about": "“Predicting negative symptom change during drug treatment” (Centre for Addiction and Mental Health, priority 2006, dated 2010)", "key": {"[1]": {"test_system": "patients with schizophrenia", "settings": "cited from earlier work"}, "NMDA receptors": {"test_system": "NMDA receptors", "settings": "Wang and Liang 1998; cited from earlier work"}, "schizophrenic subjects": {"test_system": "schizophrenic subjects", "assay": "Negative symptom improvement (SADSneg subscale) over six months of clozapine treatment, by GRIN2B T5988C genotype", "format": "in vivo, human", "settings": "after six months of clozapine treatment, baseline as covariate", "experimental": "Our sample consisted of 90 schizophrenic subjects treated with clozapine. The majority of the patients were Caucasian. The second most represented ethnicity was African American. The ratio of males to females was approximately 2.5:1. The overall response to clozapine treatment over six months was assessed using the Brief Psychiatric Rating Scale (BPRS) and the Schedule for Affective Disorders and Schizophrenia (SADS). The sample is composed of a group of patients from the Cleveland area (obtained from Dr. H. Y Meltzer, Case Western Reserve University), as part of a multisite coordinated clinical trial of clozapine response. Data on the specific assessment of negative symptom improvement in response to clozapine treatment were collected over a six month period (baseline minus 6 month score). Negative symptom improvement over a period of six months was assessed using the Brief Psychiatric Rating Scale subscale for negative symptoms (BPRSneg), and the Schedule for Affective Disorders and Schizophrenia subscale for negative symptoms (SADSneg).\nAnalysis of Covariance (ANCOVA) was performed in order to test the effect of genotype on negative symptom improvement as measured by the SADSneg subscale. The baseline score for the SADSneg, assessed before the clozapine treatment was started, was used as a covariate, in part to control for regression to the mean effects."}, "[2]": {"test_system": "neurotoxicity induced by NMDA receptor antagonists", "settings": "Farber 1993, 1996; Olney 1994; cited from earlier work"}, "[3]": {"test_system": "PCP-induced social withdrawal", "settings": "rats (Corbett et al. 1995); cited from earlier work"}, "NMDA receptor": {"test_system": "NMDA receptor", "settings": "at therapeutic levels (Lidsky et al. 1993); cited from earlier work"}, "[4]": {"test_system": "NMDA-receptor-mediated neurotransmission", "settings": "Arvanov et al. 1997; cited from earlier work"}, "[5]": {"biological_target": "glycine binding site associated with the NMDAR complex (Homo sapiens, UniProt Q05586)", "settings": "cited from earlier work"}, "[6]": {"settings": "added to conventional antipsychotics"}}, "note": "Read-outs that look alike come from different tables or passages of the source."}
{"smiles": "N[C@@H]1CONC1=O", "note": "[D-cycloserine]", "values": [{"measurement": "effect on negative symptoms", "setting": "[1]; added to clozapine", "value": "worsening of negative symptoms"}, {"measurement": "effect on negative symptoms", "setting": "[1]; [6]", "value": "significantly improved"}, {"measurement": "performance on a cognitive battery", "setting": "[1]; [6]", "value": "did not improve"}]}
{"smiles": "COc1cccc([C@H](O)C2CCN(CCc3ccc(F)cc3)CC2)c1OC", "note": "[M100907]", "values": [{"measurement": "prevention of PCP-induced blockade of NMDA receptors", "setting": "NMDA receptors", "value": "prevented"}]}
{"smiles": "CN1CCN(C2=Nc3cc(Cl)ccc3Nc3ccccc32)CC1", "note": "[clozapine]", "values": [{"measurement": "SADSneg mean (mean converted change score, baseline minus 6 month score)", "setting": "schizophrenic subjects; GRIN2B 5988 C C genotype", "value": 1.3}, {"measurement": "SADSneg mean (mean converted change score, baseline minus 6 month score)", "setting": "schizophrenic subjects; GRIN2B 5988 C T genotype", "value": 1.26}, {"measurement": "SADSneg mean (mean converted change score, baseline minus 6 month score)", "setting": "schizophrenic subjects; GRIN2B 5988 T T genotype", "value": 1.87}]}
{"smiles": "CN1CCN(C2=Nc3cc(F)ccc3Cc3ccccc32)CC1", "note": "[fluperlapine]", "values": [{"measurement": "prevention of neurotoxicity induced by NMDA receptor antagonists", "setting": "[2]", "value": "strongly prevented"}]}
{"smiles": "O=C(CCCN1CCC(O)(c2ccc(Cl)cc2)CC1)c1ccc(F)cc1", "note": "[haloperidol]", "values": [{"measurement": "reversal of PCP-induced social withdrawal", "setting": "[3]", "value": "not"}, {"measurement": "prevention of neurotoxicity induced by NMDA receptor antagonists", "setting": "[2]", "value": "intermediate effectiveness"}, {"measurement": "displacement of the ligand [3H]MK801 from the NMDA receptor", "setting": "NMDA receptor", "value": "not"}, {"measurement": "enhancement of NMDA-receptor-mediated neurotransmission", "setting": "[4]", "value": "not"}, {"measurement": "mode of action at the glycine binding site associated with the NMDAR complex", "setting": "[5]; Lidsky et al. 1997", "value": "partial agonist"}, {"measurement": "effect on NMDA receptor activity", "setting": "[5]; in the absence of glycine (Lidsky et al. 1997)", "value": "augmented"}]}
{"smiles": "Cc1nc2n(c(=O)c1CCN1CCC(c3noc4cc(F)ccc34)CC1)CCCC2", "note": "[risperidone]", "values": [{"measurement": "reversal of PCP-induced social withdrawal", "setting": "[3]", "value": "not"}]}
{"smiles": "CSc1ccc2c(c1)N(CCC1CCCCN1C)c1ccccc1S2", "note": "(stereo not shown) [thioridazine]", "values": [{"measurement": "prevention of neurotoxicity induced by NMDA receptor antagonists", "setting": "[2]", "value": "intermediate effectiveness"}]}
